Data published in PubChem BioAssay (NCI).
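Compound exposure: 48 hours, 5 concentrations, 96-well plates. The concentration for 50% growth inhibition is given as GI50. TGI marks complete inhibition of growth.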

What was measured:
Test in all cases: NCI anticancer screen, dose series, 48 h
[1] = test system: IGROV1 ovarian
[2] = test system: PC-3 prostate
[3] = test system: HCT-116 colon
[4] = test system: MOLT-4 leukemia
[5] = test system: M14 melanoma
[6] = test system: HOP-92 NSCLC
[7] = test system: OVCAR-8 ovarian
[8] = test system: RPMI-8226 leukemia
[9] = test system: KM12 colon
[10] = test system: OVCAR-4 ovarian
[11] = test system: HS 578T breast
[12] = test system: SF-268 CNS
[13] = test system: SW-620 colon
[14] = test system: K-562 leukemia
[15] = test system: SR leukemia
[16] = test system: OVCAR-5 ovarian
[17] = test system: HL-60(TB) leukemia
[18] = test system: CCRF-CEM leukemia
[19] = test system: T-47D breast
[20] = test system: SNB-19 CNS
[21] = test system: SK-MEL-5 melanoma
[22] = test system: TK-10 renal
[23] = test system: NCI-H23 lung
[24] = test system: RXF 393 renal
[25] = test system: CAKI-1 renal
[26] = test system: UO-31 renal
[27] = test system: SK-MEL-28 melanoma
[28] = test system: U251 CNS
[29] = test system: MALME-3M melanoma
[30] = test system: A549 NSCLC
[31] = test system: NCI/ADR-RES ovarian
[32] = test system: SF-295 CNS
[33] = test system: SK-OV-3 ovarian
[34] = test system: SNB-75 CNS
[35] = test system: COLO 205 colon
[36] = test system: DU-145 prostate
[37] = test system: EKVX NSCLC
[38] = test system: SF-539 CNS
[39] = test system: UACC-62 melanoma
[40] = test system: MDA-MB-435
[41] = test system: MDA-MB-231 breast
[42] = test system: 786-0 renal
[43] = test system: A498 renal
[44] = test system: HT29 colon
[45] = test system: HCT-15 colon
[46] = test system: UACC-257 melanoma
[47] = test system: NCI-H226 lung
[48] = test system: SN12C renal
[49] = test system: HOP-62 NSCLC
[50] = test system: MCF7 breast
[51] = test system: NCI-H460 lung
[52] = test system: BT-549 breast
[53] = test system: LOX IMVI melanoma
[54] = test system: OVCAR-3 ovarian
[55] = test system: HCC-2998 colon
[56] = test system: ACHN renal
[57] = test system: SK-MEL-2 melanoma

COc1cc(OC)c(OC)cc1/C=C\c1nccc2ccccc12
TGI [1]: 87000 nM
TGI [2]: 60200 nM
TGI [3]: 33400 nM
TGI [4]: 95800 nM
TGI [5]: 31100 nM
TGI [6]: 32900 nM
TGI [7]: 78900 nM
TGI [8]: 59200 nM
TGI [9]: 33500 nM
TGI [10]: > 100000 nM
TGI [11]: 94300 nM
TGI [12]: 58800 nM
TGI [13]: 83400 nM
TGI [14]: > 100000 nM
TGI [15]: > 100000 nM
TGI [16]: 98300 nM
TGI [17]: 73200 nM
TGI [18]: > 100000 nM
TGI [19]: 80400 nM
TGI [20]: 61400 nM
TGI [21]: 29500 nM
TGI [22]: 88900 nM
TGI [23]: 51700 nM
TGI [24]: 39000 nM
TGI [25]: 68300 nM
TGI [26]: 64100 nM
TGI [27]: 74700 nM
TGI [28]: 65500 nM
TGI [29]: > 100000 nM
TGI [30]: > 100000 nM
TGI [31]: > 100000 nM
TGI [32]: 56100 nM
TGI [33]: > 100000 nM
TGI [34]: 50600 nM
TGI [35]: 38000 nM
TGI [36]: 34400 nM
TGI [37]: 89700 nM

CN(C)CCCN1c2nc3ccccc3cc2Sc2cc3ccccc3nc21
GI50 [38]: 1610 nM
TGI [38]: 2970 nM
GI50 [2]: 1360 nM
TGI [2]: 2740 nM
GI50 [3]: 1100 nM
TGI [3]: 2310 nM
GI50 [39]: 1460 nM
TGI [39]: 2800 nM
GI50 [4]: 892 nM
TGI [4]: 2310 nM
GI50 [5]: 1690 nM
TGI [5]: 3230 nM
GI50 [6]: 332 nM
TGI [6]: 1420 nM
GI50 [40]: 1510 nM
TGI [40]: 2960 nM
GI50 [8]: 450 nM
TGI [8]: 2080 nM
GI50 [9]: 1510 nM
TGI [9]: 2880 nM
GI50 [11]: 1370 nM
TGI [11]: 2910 nM
GI50 [12]: 1590 nM
TGI [12]: 3000 nM
GI50 [41]: 1410 nM
TGI [41]: 2750 nM
GI50 [13]: 1480 nM
TGI [13]: 2880 nM
GI50 [14]: 639 nM
TGI [14]: > 100000 nM
GI50 [42]: 1240 nM
TGI [42]: 2500 nM
GI50 [43]: 1570 nM
TGI [43]: 2960 nM
GI50 [16]: 1540 nM
TGI [16]: 2970 nM
GI50 [17]: 1340 nM
TGI [17]: 2790 nM
GI50 [18]: 1120 nM
TGI [18]: 2550 nM
GI50 [44]: 1180 nM
TGI [44]: 5100 nM
GI50 [45]: 1330 nM
TGI [45]: 2870 nM
GI50 [46]: 1760 nM
TGI [46]: 3530 nM
GI50 [47]: 1460 nM
TGI [47]: 4030 nM
GI50 [20]: 1690 nM
TGI [20]: 3130 nM
GI50 [21]: 1590 nM
TGI [21]: 3040 nM
GI50 [22]: 1650 nM
TGI [22]: 3100 nM
GI50 [48]: 1280 nM
TGI [48]: 2550 nM
GI50 [23]: 1400 nM
TGI [23]: 2860 nM
GI50 [49]: 1290 nM
TGI [49]: 2580 nM
GI50 [50]: 859 nM
TGI [50]: 2180 nM
GI50 [51]: 1600 nM
TGI [51]: 3130 nM
GI50 [52]: 1420 nM
TGI [52]: 2840 nM
GI50 [53]: 1550 nM
TGI [53]: 3160 nM
GI50 [25]: 1460 nM
TGI [25]: 3010 nM
GI50 [26]: 1270 nM
TGI [26]: 2710 nM
GI50 [54]: 1530 nM
TGI [54]: 2920 nM
GI50 [27]: 1040 nM
TGI [27]: 2210 nM
GI50 [55]: 1650 nM
TGI [55]: 3260 nM
GI50 [28]: 1600 nM
TGI [28]: 3080 nM
GI50 [29]: 1330 nM
TGI [29]: 2890 nM
GI50 [56]: 1550 nM
TGI [56]: 2940 nM
GI50 [31]: 1880 nM
TGI [31]: 5390 nM
GI50 [32]: 1390 nM
TGI [32]: 2810 nM
GI50 [33]: 1590 nM
TGI [33]: 3010 nM
GI50 [35]: 1240 nM
TGI [35]: 2820 nM
GI50 [36]: 1650 nM
TGI [36]: 3010 nM
GI50 [57]: 1300 nM
TGI [57]: 2840 nM
GI50 [37]: 1500 nM
TGI [37]: 3230 nM

Clc1ccc2sc(-n3ccc4ccccc43)nc2c1
TGI [1]: > 100000 nM
TGI [2]: > 100000 nM
TGI [39]: > 100000 nM
TGI [4]: > 100000 nM
TGI [7]: > 100000 nM
TGI [11]: > 100000 nM
TGI [12]: > 100000 nM
TGI [13]: > 100000 nM
TGI [14]: > 100000 nM
TGI [43]: > 100000 nM
TGI [16]: > 100000 nM
TGI [18]: > 100000 nM
TGI [44]: > 100000 nM
TGI [45]: > 100000 nM
TGI [20]: > 100000 nM
TGI [21]: > 100000 nM
TGI [22]: > 100000 nM
TGI [48]: > 100000 nM
TGI [23]: > 100000 nM
TGI [50]: > 100000 nM
TGI [51]: > 100000 nM
TGI [52]: > 100000 nM
TGI [24]: 69300 nM
TGI [53]: > 100000 nM
TGI [26]: > 100000 nM
TGI [27]: > 100000 nM
TGI [55]: > 100000 nM
TGI [28]: > 100000 nM
TGI [56]: > 100000 nM
TGI [31]: > 100000 nM
TGI [33]: > 100000 nM
TGI [34]: > 100000 nM
TGI [37]: > 100000 nM
